Experimental data taken from US20100317565A1, “Novel Peptides and Their Use for the Treatment of Edema” (Rentschler Beteiligungs GmbH, priority 2007, published 2010).
Entries after “also recorded” stand apart in the source; their conditions may differ. Bridge positions count the residues as written; N and C are the ends. Ends that are not written are not given here.

Columns and labels:
[1] = test system: polarized Calu-3 cell monolayers; experiment: Transepithelial electrical resistance (TEER) assay on polarized Calu-3 cell monolayers; type: cell-based, human; details: peptide 250 μM added to apical and basolateral compartment; peak TEER value as percent of Tip peptide (=100%)
in situ mouse lung = details: cited from earlier work
rat lung = details: ex vivo and in vivo rat lung model; cited from earlier work
[2] = test system: microvascular endothelial cells; details: cited from earlier work
[3] = test system: isolated blood perfused flooded rat lung (E. coli-LPS induced lung edema); experiment: Endotoxin induced lung injury in the isolated blood perfused flooded rat lung model; type: in vivo, male Spraque-Dawley rats; details: P5 3 mg or P9 10 mg in 1 ml saline i.t.; for Attenuation of LPS-induced total lung weight gain / lung edema production: LPS 3 mg/kg i.t., 18 h, 2-h ex-vivo reperfusion; for Inspiratory resistive work / Static and dynamic lung compliance: LPS-treated lungs; for Inspiratory resistive work / Static and dynamic lung compliance / Effect on lung wet/dry weight ratio: 2-h reperfusion; for Effect on lung wet/dry weight ratio: versus LPS+saline treated lungs
Procedure: In the “Endotoxin induced lung injury in the isolated blood perfused flooded rat lung model”, which is an ex vivo permeability lung edema model, E. coli-LPS is instilled intratracheally and after […] the lung is isolated and placed in an artificial thorax chamber. Then, perfusion occurs with autolo-gous blood. After an one hour stabilisation period, the test compound (in 1 ml saline) is instilled intratra-cheally. Lung parameters are measured over 2 hours. The main read-outs are lung-weight and parameters of lung mechanics and hemodynamics.
In the “Endotoxin induced lung injury in the isolated blood perfused flooded rat lung model”, which is an ex vivo permeability lung edema model, E. coli-LPS is instilled intratracheally and after […] the lung is isolated and placed in an artificial thorax chamber. Then, perfusion occurs with autologous blood. After an one hour stabilisation period, the test compound (in 1 ml saline) is instilled intratracheally. Lung parameters are measured over 2 hours. The primary readout parameters of this […] model are wet weight of lung and heart and P/V curves which are parameters of lung mechanics and hemodynamics.
In this ex vivo lung edema model, E. coli-LPS (3 mg/kg) was instilled intratracheally into male Spraque-Dawley rats. After 18 h the lung was isolated and placed in an artificial thorax chamber. Then, perfusion occurred with autologous blood. After one hour stabilisation period, the test compound (in 1 ml saline) was instilled intratracheally. Lung parameters were measured over 2 h. The main read-outs were lung-weight and parameters of lung mechanics and hemodynamics. • Number of rats: n=7-8 per group • Data are means±SEM • Treatment groups:
? P9 • Perfusion conditions: • imposed pulmonary artery perfusion pressure: 20 mmHg • imposed left atrial pressure: 10 mmHg • resulting pulmonary blood flow: ˜6-9 ml/min • resulting pulmonary microvascular pressure: ˜14.5 mmHg • imposed tidal volume: 7 ml/kg; respiratory rate: 30 bpm • imposed positive end-expiratory airway pressure: 3.0 cmH2O-arterial pH: 7.5 • adjusted hematocrit: 28% (autologous blood)

2 (CGTKPIELGPDEPKAVC; disulfide 1-17 (inferred)) [compound 2]
Activity in TEER assay (c = 250 μM) (% of Tip activity) [1]: 130.1 % of Tip activity

5 (TPEGAETPEGAETPEGAETPEGAETPEGAE; anti-edema peptide) [compound 5]
Activity in TEER assay (c = 250 μM) (% of Tip activity) [1]: 93.0 % of Tip activity

11 (TPEGAEGGGGGTPEGAEGGGGGTPEGAE; anti-edema peptide) [compound 11]
Activity in TEER assay (c = 250 μM) (% of Tip activity) [1]: 80.0 % of Tip activity

20 (GGSPSQRETPEGAEAKPWYGGSPSQRETPEGAEAKPWYGGSPSQRETPEGAEAKPWY; anti-edema peptide) [compound 20]
Activity in TEER assay (c = 250 μM) (% of Tip activity) [1]: 539.0 % of Tip activity

35 (CGQRESPEGAEAKPWYC; anti-edema peptide) [compound 35]
Activity in TEER assay (c = 250 μM) (% of Tip activity) [1]: 120.9 % of Tip activity

36 (CGQRESPEGADAKPWYC; anti-edema peptide) [compound 36]
Activity in TEER assay (c = 250 μM) (% of Tip activity) [1]: 119.4 % of Tip activity

39 (CGQRESPDGAEAKPWYC; anti-edema peptide) [compound 39]
Activity in TEER assay (c = 250 μM) (% of Tip activity) [1]: 88.8 % of Tip activity

40 (CGQRESPDGADAKPWYC; anti-edema peptide) [compound 40]
Activity in TEER assay (c = 250 μM) (% of Tip activity) [1]: 127.7 % of Tip activity

42 (CGQRESPDGGDAKPWYC; anti-edema peptide) [compound 42]
Activity in TEER assay (c = 250 μM) (% of Tip activity) [1]: 123.6 % of Tip activity

43 (CGQRETPEGADAKPWYC; anti-edema peptide) [compound 43]
Activity in TEER assay (c = 250 μM) (% of Tip activity) [1]: 139.8 % of Tip activity

45 (CGQRETPDGADAKPWYC; anti-edema peptide) [compound 45]
Activity in TEER assay (c = 250 μM) (% of Tip activity) [1]: 172.4 % of Tip activity

46 (CGQRETPDGAEAKPWYC; anti-edema peptide) [compound 46]
Activity in TEER assay (c = 250 μM) (% of Tip activity) [1]: 130.4 % of Tip activity

49 (CGTPEGAETPEGAETPEGAEGC; anti-edema peptide) [compound 49]
Activity in TEER assay (c = 250 μM) (% of Tip activity) [1]: 139.9 % of Tip activity

50 (CGGGGGTPEGAEGGGGGTPEGAEGGGGGTPEGAEGC; anti-edema peptide) [compound 50]
Activity in TEER assay (c = 250 μM) (% of Tip activity) [1]: 156.5 % of Tip activity

51 (CGTPEGAETPEGAETPEGAETPEGAETPEGAEGC; anti-edema peptide) [compound 51]
Activity in TEER assay (c = 250 μM) (% of Tip activity) [1]: 146.6 % of Tip activity

52 (SPEGGEGGGGGSPEGGEGGGGGSPEGGE; anti-edema peptide) [compound 52]
Activity in TEER assay (c = 250 μM) (% of Tip activity) [1]: 87.1 % of Tip activity

53 (CGSPEGGEGGGGGSPEGGEGGGGGSPEGGEGC; anti-edema peptide) [compound 53]
Activity in TEER assay (c = 250 μM) (% of Tip activity) [1]: 131.7 % of Tip activity

54 (SPEGGDGGGGGSPEGGDGGGGGSPEGGD; anti-edema peptide) [compound 54]
Activity in TEER assay (c = 250 μM) (% of Tip activity) [1]: 90.7 % of Tip activity

55 (CGSPEGGDGGGGGSPEGGDGGGGGSPEGGDGC; anti-edema peptide) [compound 55]
Activity in TEER assay (c = 250 μM) (% of Tip activity) [1]: 146.0 % of Tip activity

CGQRETPEGAEAKPWYC [SEQ ID NO: 61]
Alveolar fluid reabsorption (in situ mouse lung): up-regulated
Alveolar fluid reabsorption (rat lung): up-regulated
Membrane conductance [2]: increased

CGSPEGGDSPEGGDSPEGGDGC (anti-edema peptide) [Peptide P5]
Attenuation of LPS-induced total lung weight gain / lung edema production [3]: significantly attenuate; also recorded: attenuating the LPS-induced total lung weight gain
Inspiratory resistive work [3]: especially reduces
Static and dynamic lung compliance [3]: markedly ameliorates
Effect on lung wet/dry weight ratio [3]: statistically significantly different from LPS+saline treated lungs

SPEGGEGGGGGSPEGGEGGGGGSPEGGE (anti-edema peptide) [SEQ ID NO: 52]
Attenuation of LPS-induced total lung weight gain / lung edema production ([3]; listed as P9): attenuating the LPS-induced total lung weight gain
Inspiratory resistive work [3]: especially reduces
Static and dynamic lung compliance [3]: markedly ameliorates
Effect on lung wet/dry weight ratio [3]: less pronounced
